Experimental data as given in paper PMC3701070 (PLoS ONE, 2013).
Where two headings read alike, the source gives them in different places.

Tests used:
A375 = experiment: Cell growth assay; type: cell-based; conditions: Homo sapiens, A-375, 72 h; A375, BRAF(V600E), RAS WT, 3-day; read-out: gIC50
Procedure: (§1) Growth was measured with CellTiter-Glo® (Promega) reagent per the manufacturer’s protocol, using a PerkinElmer EnVision™ reader at t = 0 and 72 h. IC50 values for cell growth inhibition (gIC50) were determined.
(§2) (PDF) Click here for additional data file.
Supplementary file pone.0067583.s006.pdf: Table S3 Enzymatic and cellular activity of tool inhibitors used in the rat skin lesion formation study. Activity of GSK2366297A (BRAF tool inhibitor) and GSK2091975 (MEK tool inhibitor, active form of prodrug GSK2091976) were measured against their respective enzyme targets as described in the Materials and Methods section. Cellular activity was determined for each by inhibition of ERK phosphorylation in SK-MEL-28 cells and growth of A375 cells, both of which express BRAF^V600E. (PDF) Click here for additional data file.

[1] = tested on: Colo 205 tumor xenografts (BRAF^V600E); experiment: Colo 205 tumor xenograft growth; type: in vivo, mice
Description: The 14-day period of dosing is indicated by the shaded gray bar.

NCI-H2052 = experiment: Cell growth assay; type: cell-based; conditions: Homo sapiens, 72 h; NCI-H2052, RAF WT, RAS WT, 3-day; read-out: gIC50
Procedure: as §1, §2

SW756 = experiment: Cell growth assay; type: cell-based; conditions: Homo sapiens, 72 h; SW756, RAF WT, KRAS(G12C), 3-day; read-out: gIC50
Procedure: as §1, §2

Hs746.T = experiment: Cell growth assay; type: cell-based; conditions: Homo sapiens, Hs746T, 72 h, RAF WT, RAS WT, 3-day, read-out: gIC50
Procedure: as §1, §2

Molt-4 = experiment: Cell growth assay; type: cell-based; conditions: Homo sapiens, 72 h; Molt-4, RAF WT, RAS WT, 3-day; read-out: gIC50
Procedure: as §1, §2

SW1088 = experiment: Cell growth assay; type: cell-based; conditions: Homo sapiens, 72 h; SW1088, RAF WT, RAS WT, 3-day; read-out: gIC50
Procedure: as §1, §2

SJRH30 = experiment: Cell growth assay; type: cell-based; conditions: Homo sapiens, 72 h; SJRH30, RAF WT, RAS WT, 3-day; read-out: gIC50
Procedure: as §1, §2

HCC-70 = experiment: Cell growth assay; type: cell-based; conditions: Homo sapiens, HCC70, 72 h; HCC-70, RAF WT, RAS WT, 3-day; read-out: gIC50
Procedure: as §1, §2

RD = experiment: Cell growth assay; type: cell-based; conditions: Homo sapiens, 72 h, RAF WT, RAS WT, 3-day, read-out: gIC50
Procedure: as §1, §2

NCI-H508 = experiment: Cell growth assay; type: cell-based; conditions: Homo sapiens, 72 h; NCI-H508, BRAF(G596R), RAS WT, 3-day; read-out: gIC50
Procedure: as §1, §2

A2780 = experiment: Cell growth assay; type: cell-based; conditions: Homo sapiens, 72 h; A2780, RAF WT, RAS WT, 3-day; read-out: gIC50
Procedure: as §1, §2

NCI-H661 = experiment: Cell growth assay; type: cell-based; conditions: Homo sapiens, 72 h; NCI-H661, RAF WT, RAS WT, 3-day; read-out: gIC50
Procedure: as §1, §2

OVCAR-3 = experiment: Cell growth assay; type: cell-based; conditions: Homo sapiens, 72 h; OVCAR-3, RAF WT, RAS WT, 3-day; read-out: gIC50
Procedure: as §1, §2

HT-1080 = experiment: Cell growth assay; type: cell-based; conditions: Homo sapiens, 72 h; HT-1080, RAF WT, RAS WT, 3-day; read-out: gIC50
Procedure: as §1, §2

CRO-AP2 = experiment: Cell growth assay; type: cell-based; conditions: Homo sapiens, 72 h; CRO-AP2, RAF WT, RAS WT, 3-day; read-out: gIC50
Procedure: as §1, §2

A204 = experiment: Cell growth assay; type: cell-based; conditions: Homo sapiens, 72 h; A204, RAF WT, RAS WT, 3-day; read-out: gIC50
Procedure: as §1, §2

SW579 = experiment: Cell growth assay; type: cell-based; conditions: Homo sapiens, 72 h; SW579, RAF WT, RAS WT, 3-day; read-out: gIC50
Procedure: as §1, §2

MDA-MB-175 VII = experiment: Cell growth assay; type: cell-based; conditions: Homo sapiens, 72 h, RAF WT, RAS WT, 3-day, read-out: gIC50
Procedure: as §1, §2

NCI-H226 = experiment: Cell growth assay; type: cell-based; conditions: Homo sapiens, 72 h; NCI-H226, RAF WT, RAS WT, 3-day; read-out: gIC50
Procedure: as §1, §2

LIMK1 (h) = target: T1, LIMK1 (h) (Homo sapiens, UniProt P53667); experiment: Kinase panel (Millipore) enzyme activity; type: biochemical
T1 construct: purchased Millipore
Description: as §2

[2] = tested on: pMEK and pERK in HCT-116 (wild-type BRAF, mutant KRAS) cells; experiment: Western blot, paradoxical MAPK activation in HCT-116 cells; type: cell-based, human; conditions: 100 nM or 300 nM, 1 h
Procedure: Cells were lysed in 25 mM Tris-HCl pH 7.5, 2 mM EDTA, 2 mM EGTA, 1% Triton X-100, 0.1% SDS, 50 mM sodium-β-glycerophosphate, 2 mM Na3VO4, 12.5 mM sodium pyrophosphate, 2× Complete EDTA-free mini protease inhibitor tablets (Roche), 2× phosphatase inhibitor cocktails I and II (Sigma-Aldrich). Protein concentrations were determined by Bio-Rad DC™ or dye-based protein assays and lysates were resolved by SDS-PAGE (Invitrogen NuPAGE®) and transferred to PVDF membranes. Membranes were blocked with Odyssey® (LI-COR Biosciences) blocking buffer and incubated with primary antibodies overnight at 4°C. Blots were washed with PBS containing 0.1% Tween-20, incubated with secondary antibodies, and washed again prior to signal detection on a LI-COR Odyssey® reader.
Lysates were immunoblotted for total ERK (tERK) and dual-phosphorylated ERK (ppERK) (B).

A375P tumor xenograft = conditions: groups of 8 mice, cited from earlier work
ALK5 (h) = ALK5 (h) (Homo sapiens, UniProt P36897); experiment: ALK5 binding assay
Chain of ALK5 (h) (P36897 34-503): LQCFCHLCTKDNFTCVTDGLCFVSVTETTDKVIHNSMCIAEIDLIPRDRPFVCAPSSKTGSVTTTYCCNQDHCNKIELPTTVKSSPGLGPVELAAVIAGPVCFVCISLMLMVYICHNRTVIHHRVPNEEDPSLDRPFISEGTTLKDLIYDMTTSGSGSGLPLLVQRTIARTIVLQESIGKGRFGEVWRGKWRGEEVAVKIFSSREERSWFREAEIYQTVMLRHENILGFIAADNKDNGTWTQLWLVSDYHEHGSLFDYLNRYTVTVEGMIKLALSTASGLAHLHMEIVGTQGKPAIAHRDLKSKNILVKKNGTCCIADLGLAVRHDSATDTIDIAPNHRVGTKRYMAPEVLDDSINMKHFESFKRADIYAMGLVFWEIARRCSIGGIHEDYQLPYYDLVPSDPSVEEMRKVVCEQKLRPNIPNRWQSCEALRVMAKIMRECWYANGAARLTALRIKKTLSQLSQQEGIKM

T1 sequence (P53667 whole entry): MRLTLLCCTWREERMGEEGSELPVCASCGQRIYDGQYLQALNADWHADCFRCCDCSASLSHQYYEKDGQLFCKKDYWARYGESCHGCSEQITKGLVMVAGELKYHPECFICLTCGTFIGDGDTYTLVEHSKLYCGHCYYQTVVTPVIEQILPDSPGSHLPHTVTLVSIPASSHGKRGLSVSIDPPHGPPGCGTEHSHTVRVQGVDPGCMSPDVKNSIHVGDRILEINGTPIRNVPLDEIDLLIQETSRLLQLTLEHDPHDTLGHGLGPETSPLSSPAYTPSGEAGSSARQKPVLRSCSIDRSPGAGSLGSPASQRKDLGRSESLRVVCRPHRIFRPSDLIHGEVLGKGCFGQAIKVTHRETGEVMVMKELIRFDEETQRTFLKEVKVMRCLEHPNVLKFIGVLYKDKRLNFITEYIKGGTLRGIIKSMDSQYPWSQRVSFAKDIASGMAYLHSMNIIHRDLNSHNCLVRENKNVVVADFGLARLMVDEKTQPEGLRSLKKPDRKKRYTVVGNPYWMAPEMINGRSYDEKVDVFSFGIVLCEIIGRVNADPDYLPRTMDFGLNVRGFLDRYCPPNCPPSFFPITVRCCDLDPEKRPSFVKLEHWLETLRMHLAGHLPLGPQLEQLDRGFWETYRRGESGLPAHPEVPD

CC(C)(C)c1nc(-c2cccc(NS(=O)(=O)c3c(F)cccc3F)c2F)c(-c2ccnc(N)n2)s1 [dabrafenib]
IC50 (A375): 0.004 µM | partial regressions ([1]; Colo 205 xenograft, 100 mg/kg oral q.d. x 14): 4 of 8 mice | inhibition of tumor growth ([1]; Colo 205 xenograft, 3, 10, 30 and 100 mg/kg oral q.d. x 14): dose-dependent inhibition of tumor growth | IC50 (NCI-H2052): > 10 µM | IC50 (SW756): > 10 µM | IC50 (Hs746.T): > 10 µM | IC50 (Molt-4): > 10 µM | IC50 (SW1088): > 10 µM | IC50 (SJRH30): > 10 µM | IC50 (HCC-70): > 10 µM | IC50 (RD): > 10 µM | IC50 (NCI-H508): > 10 µM | IC50 (A2780): > 10 µM | IC50 (NCI-H661): > 10 µM | IC50 (OVCAR-3): > 10 µM | IC50 (HT-1080): 2 µM | IC50 (CRO-AP2): > 10 µM | IC50 (A204): > 10 µM | IC50 (SW579): > 10 µM | IC50 (MDA-MB-175 VII): > 10 µM | IC50 (NCI-H226): > 10 µM | IC50 (LIMK1 (h)): 0.015 µM | pMEK and pERK compared with DMSO control [2]: increased pMEK and pERK | complete regressions (A375P tumor xenograft; 10 mg/kg): 1 | partial regressions (A375P tumor xenograft; 10 mg/kg): 2 | complete regressions (A375P tumor xenograft; 100 mg/kg): 4 | partial regressions (A375P tumor xenograft; 100 mg/kg): 2 | IC50 (ALK5 (h)): 0.011 µM
